Data taken from US11740235B2, “Model-membrane-based lipid transfer assays and methods” (Regents of the University of Minnesota, priority 2019, dated 2023).
Entries after “also recorded” stand apart in the source; their conditions may differ.

Columns and labels:
Format in all cases: biochemical
GLTP [1] = target: T1, GLTP (Homo sapiens, UniProt Q9NZD2); experiment: FRET lipid transfer control with DHPC in assay buffer, ethanol-injection donors and sonicated acceptors; conditions: DHPC 352 μM and 672 μM in assay buffer; ethanol-injection donors, sonicated acceptors (5×)
T1 construct: 6xHis-SUMO (N, cleaved yes); made in house; host or cells: E. coli BL21 (DE3)-pLysS or -Star
T1 sequence (Q9NZD2 1-209): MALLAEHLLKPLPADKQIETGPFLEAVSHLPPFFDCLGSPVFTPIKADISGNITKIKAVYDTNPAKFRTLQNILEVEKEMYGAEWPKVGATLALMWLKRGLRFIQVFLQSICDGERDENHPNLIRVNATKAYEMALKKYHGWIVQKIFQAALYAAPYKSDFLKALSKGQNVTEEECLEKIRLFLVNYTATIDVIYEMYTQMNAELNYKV
Method: Small phosphatidylcholine vesicles (25-40 nm diameters) have typically been used as model membranes to assess lipid inter-bilayer transfer because of the faster transfer rates compared to those obtained using larger vesicles. Different donor and acceptor combinations were tested involving either small vesicles and/or 0.5 q-value bicelle dilution vesicles (bd-vesicles) to determine which combination produced the fastest intermembrane transfer rates. […] When the donor vesicles were produced by sonication, sphingolipid transfer rates were markedly slowed regardless of whether the acceptors were bd-vesicles or sonicated vesicles. […] Thus, similar high assay sensitivity can be achieved using the bicelle-to-bicelle transfer conditions as for vesicle-to-vesicle transfer conditions. […]
(§1) Real-time intermembrane transfer rates of fluorescent sphingolipids were obtained by Förster resonance energy transfer (FRET) using a SPEX FluoroLog3 spectrofluorometer (Horiba Scientific, Ltd., Kyoto, Japan), with excitation and emission band passes of 2 nm and a stirred (˜100 rpm), temperature-controlled (25±0.1° C.) sample cuvette holder. […] Either sonicated POPC vesicles or b-d POPC/DHPC model membranes served as receiver (acceptor) model membranes, which produced minimal change in fluorescence signal when added in excess (Mattjus et al., 1999, Anal. Biochem. 268:297-304). […]

ACD11 [2] = target: T2, ACD11 (Arabidopsis thaliana, UniProt O64587); experiment: Bicelle-dilution FRET lipid transfer assay, lipid specificity; conditions: donor q=0.5, acceptor q=0.5
T2 construct: 6xHis-SUMO (N, cleaved yes); made in house; host or cells: E. coli BL21 (DE3)-pLysS or -Star
T2 sequence (O64587 1-206): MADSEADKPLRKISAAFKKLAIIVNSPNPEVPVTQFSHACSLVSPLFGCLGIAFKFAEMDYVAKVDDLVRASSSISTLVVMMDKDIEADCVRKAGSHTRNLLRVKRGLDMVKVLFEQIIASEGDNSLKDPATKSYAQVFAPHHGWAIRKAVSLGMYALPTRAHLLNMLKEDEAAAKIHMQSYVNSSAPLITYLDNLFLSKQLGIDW
Method: (§2) For experiments requiring ˜10 kinetic assays, donor stock lipid mixtures (0.5 q-value) were prepared by combining POPC (0.39 μmol), BODIPY-15-SL (0.004 μmol), DiI-C18 (0.006 μmol) and DHPC (0.8 μmol) from stock solvent solutions of hexane/ethanol (9:1) or chloroform/methanol (8:2). Acceptor stock lipid mixtures (0.5 q-value) were prepared by combining POPC (2 μmol) and DHPC (4 μmol) from stock solvent solutions. Total solvent volume in the clean glass vials containing inverted conical bottoms was approximately 100 μl. For other q-value stocks, the amount of DHPC was adjusted accordingly. Dry films of the lipid mixtures were obtained using a stream of nitrogen to evaporate all solvent at room temperature. The dry lipid films were hydrated by adding 200 μl of assay buffer (10 mM potassium phosphate, pH 6.6, 150 mM NaCl, and 0.2% EDTA) and then vortexed vigorously for at least five minutes to achieve optical clarity. For stocks with q-values of 1 or 2, lipid mixtures were not only vortexed vigorously but also sonicated briefly (2 to 3 minutes). All stocks were equilibrated overnight at room temperature prior to use in the lipid transfer assay regardless of q-value [q-value for donors=(POPC+BODIPY-15-SL+DiIC18)/DHPC; q-value for acceptors=POPC/DHPC]. Immediately prior to use in the FRET lipid transfer assay, donor and acceptor stocks were centrifuged for 10 minutes at 13,000 rpm. The FRET lipid transfer assay as performed as follows: donor stock (20 μl) was diluted into a stirred temperature-controlled cuvette containing assay buffer an equilibrated for two minutes to ensure a stable signal response. Next, acceptor stock (20 μl was diluted into the stirred cuvette and equilibrated for four minutes prior to initiating sphingolipid transfer by adding lipid transfer protein (2 μg) to a final cuvette volume of 2.5 ml. The total lipid concentration was 288 μM for assays using a 5:1 acceptor-to-donor ratio and was higher when more acceptors were added to increase transfer equilibrium from the donors.
(§3) Real-time intermembrane transfer rates of fluorescent sphingolipids were obtained by Förster resonance energy transfer (FRET) using a SPEX FluoroLog3 spectrofluorometer (Horiba Scientific, Ltd., Kyoto, Japan), with excitation and emission band passes of 2 nm and a stirred (˜100 rpm), temperature-controlled (25±0.1° C.) sample cuvette holder. All fluorescent lipids were localized initially to the SL-source (donor) vesicles (formed by rapid ethanol injection or probe sonication) or SL-source (donor) b-d model membranes. Minimal BODIPY-lipid emission occurred upon excitation (460 nm) due to resonance energy transfer to nearby C18-DiI. Either sonicated POPC vesicles or b-d POPC/DHPC model membranes served as receiver (acceptor) model membranes, which produced minimal change in fluorescence signal when added in excess (Mattjus et al., 1999, Anal. Biochem. 268:297-304). The final receiver (acceptor) vesicle concentration in the FRET lipid transfer assay was ˜240 μM to 1440 μM, which was five-fold to 30-fold higher than the SL-source (donor) vesicle concentration. Protein addition triggered a sudden, hyperbolic increase in BODIPY emission intensity (503 nm) as FRET decreased due to protein transport of fluorescent glycolipids from SL-source (donor) vesicles to receiver (acceptor) vesicles, creating separation from nontransferable C18-DiI lipid, as the protein delivers the BODIPY-SL to the excess POPC receiver vesicles or POPC/DHPC bicelles. Addition of Tween-20 detergent after extended incubation provided a measure of maximum intensity achievable by “infinite” fluorophore separation.

GLTP [3] = target: T1, GLTP; experiment: as above; conditions: for transfer by GLTP between bd donors and acceptors: donor q=0.5, acceptor q=0.5
Method: as §2, §3

GFP-CPTP = experiment: Bicelle-dilution FRET lipid transfer assay with HeLa cell lysate; conditions: lysate of transfected HeLa cells, 10 μl aliquots; donor q=0.5, acceptor q=0.5
Chain of GFP-CPTP (Q5TA50 whole entry): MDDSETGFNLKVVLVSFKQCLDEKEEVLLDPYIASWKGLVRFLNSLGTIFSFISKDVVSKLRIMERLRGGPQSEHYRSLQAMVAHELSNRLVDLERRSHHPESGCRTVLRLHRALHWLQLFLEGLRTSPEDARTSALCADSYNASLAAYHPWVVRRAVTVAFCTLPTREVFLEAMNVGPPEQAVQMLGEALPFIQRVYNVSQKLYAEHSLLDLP
Method: (§4) FIG. 14. Bicelle-dilution-model-membrane-assay detection of transfer activity by GLTP and CPTP expressed in HeLa cells after transient transfection with GFP-GLTP or GFP-CPTP. Cells were disrupted by brief probe sonication (30 sec×2) on ice. Cell supernatants were recovered by benchtop centrifugation (5 min @ 12,000 rpm) at 4° C. and then 10 μl aliquots were assayed for LTP activity. (Donor: q=0.5; Acceptor: q=0.5).
(§5) HeLa cells were plated on 100-mm dishes and transfected with different vectors using Lipofectamine 2000 (Invitrogen, Carlsbad, Calif.). At 24 hours post-transfection, cells were harvested by trypsinization, washed with phosphate-buffered saline (PBS) by benchtop centrifugation and then suspended in PBS buffer (200 μl). Disruption of the HeLa cells was accomplished by brief probe sonication (2×30 seconds) on ice. Cell supernatants were recovered by benchtop centrifugation (5 minutes at 12,000 rpm) at 4° C. and 10 μl aliquots were assayed for SLTP activity using donor bicelle-dilution vesicles containing either Me4-BODIPY-GalCer or Me4-BODIPY-C1P along with C18-DiI.

GFP-GLTP = experiment: as above; conditions: lysate of transfected HeLa cells, 10 μl aliquots; donor q=0.5, acceptor q=0.5
Method: as §4, §5

ACD11 [4] = target: T2, ACD11; experiment: Bicelle-dilution FRET assay, competitive inhibition of BODIPY-C1P transfer; conditions: increasing concentrations in donor bd-vesicles; donor q=0.5, acceptor q=0.5
Source text: The C1P derivative, diethyl-C1P, can inhibit cytosolic phospholipase A2α (cPLA2α) activity when the C1P acyl chain is short—e.g., C2-diethyl-C1P. The inhibition of cPLA2α by C2-diethyl-C1P presumably occurs via interaction with the cPLA2α C2-domain, which contains a C1P binding site that activates cPLA2α by enhancing translocation to membranes. To date, no inhibitors of C1P transfer proteins (e.g., CPTP and ACD11) have been reported. The bicelle-dilution FRET assay was used to test whether C2-diethyl-C1P can inhibit the plant CPTP ortholog, ACD11. […]
as §1

Row | Compound | transfer by ACD11 between bd donors and acceptors (ACD11 [2]) | transfer by GLTP between bd donors and acceptors (GLTP [3]) | bd-vesicle-to-bd-vesicle transfer by GFP-GLTP (GFP-GLTP) | further results
1 | CCCCCC(=O)OC[C@H](COP(=O)([O-])OCC[N+](C)(C)C)OC(=O)CCCCC [DHPC, 1,2-hexanoyl-sn-glycero-3-phosphocholine] |  |  |  | effect on GLTP transfer rate of Me4-BODIPY-GalCer (GLTP [1]): Lack of significant effect; also recorded: Minimal affect
2 | Me4-BODIPY-15-ceramide-1-phosphate [Me4-BODIPY C1P] | specifically transfers | not | not | transfer by ACD11 between bd donors and acceptors (ACD11 [2]; listed as BODIPY-C1P): transfer; bd-vesicle-to-bd-vesicle transfer by GFP-CPTP (GFP-CPTP): transfer
3 | Me4-BODIPY-15-galactosylceramide [Me4-BODIPY GalCer] | not | is detected | transfer | transfer equilibrium by GLTP (GLTP [3]; bicelle-dilution vesicles, 100% estimated by Tween-20 solubilization): ~70%; transfer by GLTP between bd donors and acceptors (GLTP [3]; listed as BODIPY-GalCer): transfer
4 | ceramide-1-phosphate [C1P] |  |  |  | competition effect on ACD11-mediated transfer rates of Me4-BODIPY C1P (ACD11 [4]): Slowing of ACD11 transfer of BODIPY-C1P; also recorded: slow the inter-bicelles transfer rates
